Like-named read-outs stand apart in the source and are kept apart here.

Data on four compounds can be found in PMC11774580 (Chemosphere, 2024).

Series [1] has as its target T1, human OCT2 (Homo sapiens, UniProt O15244).
T1 sequence (O15244 1-555): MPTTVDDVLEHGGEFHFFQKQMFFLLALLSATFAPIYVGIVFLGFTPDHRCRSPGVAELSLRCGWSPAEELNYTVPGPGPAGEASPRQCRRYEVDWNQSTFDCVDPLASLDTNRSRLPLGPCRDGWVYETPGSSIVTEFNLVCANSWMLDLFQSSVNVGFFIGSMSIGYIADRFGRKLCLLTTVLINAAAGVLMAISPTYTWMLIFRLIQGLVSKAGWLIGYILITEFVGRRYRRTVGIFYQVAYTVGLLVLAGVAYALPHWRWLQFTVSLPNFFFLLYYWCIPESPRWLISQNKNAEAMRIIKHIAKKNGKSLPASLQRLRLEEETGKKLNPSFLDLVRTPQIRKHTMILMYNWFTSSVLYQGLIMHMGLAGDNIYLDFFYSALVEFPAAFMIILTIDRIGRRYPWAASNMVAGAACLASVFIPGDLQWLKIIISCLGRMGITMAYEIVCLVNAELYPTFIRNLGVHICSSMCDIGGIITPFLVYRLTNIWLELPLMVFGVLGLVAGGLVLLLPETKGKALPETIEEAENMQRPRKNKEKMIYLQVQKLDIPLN
Briefly: OCT2 inhibition assay. Type of series: cell-based.

Series [2] has as its target T2, human OAT3 (Homo sapiens, UniProt Q8TCC7).
T2 sequence (Q8TCC7 1-542): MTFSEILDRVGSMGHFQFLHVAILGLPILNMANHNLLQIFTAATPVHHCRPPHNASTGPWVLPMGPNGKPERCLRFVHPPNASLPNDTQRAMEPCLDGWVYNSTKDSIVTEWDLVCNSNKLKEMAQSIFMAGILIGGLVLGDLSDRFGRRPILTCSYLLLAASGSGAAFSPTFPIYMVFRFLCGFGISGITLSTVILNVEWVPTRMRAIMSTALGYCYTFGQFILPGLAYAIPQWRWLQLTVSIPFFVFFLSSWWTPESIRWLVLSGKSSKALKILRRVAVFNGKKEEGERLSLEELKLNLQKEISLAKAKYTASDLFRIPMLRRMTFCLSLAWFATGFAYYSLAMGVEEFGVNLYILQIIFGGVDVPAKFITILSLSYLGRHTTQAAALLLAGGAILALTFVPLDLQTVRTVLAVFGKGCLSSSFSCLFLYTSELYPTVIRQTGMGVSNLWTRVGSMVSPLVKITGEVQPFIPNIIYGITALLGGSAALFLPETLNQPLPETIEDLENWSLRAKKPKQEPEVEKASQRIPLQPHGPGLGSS
Nature of the series: OAT3 inhibition assay.

The nature of series [3]: Physicochemical parameters.
Series [4] has as its target T1, human OCT2. Briefly: hOCT2 substrate. Type of series: in vitro ADME. The conditions noted are these: 1 μM PFAS screen.
For series [5], the system named is MDCKII-LE cell monolayers. The conditions noted are these: MDCK.
The next series can be described thus: in vitro. The conditions noted are these: dog, MDCK, pH 7.4.
The subject of series [6] is MDCKII-LE cell monolayers. Nature of the series: Apparent permeability. The conditions noted are these: donor pH 7.4, receiver pH 7.4; 2 μM PFAS; 90 min; 0.4% BSA in receiver.
A further series addresses T3, human OAT4 (Homo sapiens, UniProt Q9NSA0).
T3 sequence (Q9NSA0 1-550): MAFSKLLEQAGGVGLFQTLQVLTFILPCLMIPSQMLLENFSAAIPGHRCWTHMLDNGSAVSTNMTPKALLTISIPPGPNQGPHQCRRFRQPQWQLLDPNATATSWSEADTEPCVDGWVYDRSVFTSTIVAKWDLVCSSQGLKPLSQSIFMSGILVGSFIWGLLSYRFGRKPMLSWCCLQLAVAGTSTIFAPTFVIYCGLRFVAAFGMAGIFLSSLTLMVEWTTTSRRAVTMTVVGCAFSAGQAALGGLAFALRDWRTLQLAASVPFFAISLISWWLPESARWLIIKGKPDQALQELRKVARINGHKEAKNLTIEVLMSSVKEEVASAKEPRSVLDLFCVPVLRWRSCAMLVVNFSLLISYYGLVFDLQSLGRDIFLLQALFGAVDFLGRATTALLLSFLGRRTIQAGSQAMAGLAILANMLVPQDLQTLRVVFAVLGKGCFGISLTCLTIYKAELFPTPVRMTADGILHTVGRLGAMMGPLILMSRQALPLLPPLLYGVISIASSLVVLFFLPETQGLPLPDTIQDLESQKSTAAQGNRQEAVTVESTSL
Briefly: hOAT4 substrate. Type of series: in vitro ADME. The following applies: for Transporter Uptake Ratio OAT4: 1 μM PFAS, threshold ≥ 2-fold; for Effect of probenecid co-treatment on hOAT4-mediated uptake: probenecid 1 mM.

The target of series [7] is T4, human OAT1 (Homo sapiens, UniProt Q4U2R8).
T4 sequence (Q4U2R8 1-563): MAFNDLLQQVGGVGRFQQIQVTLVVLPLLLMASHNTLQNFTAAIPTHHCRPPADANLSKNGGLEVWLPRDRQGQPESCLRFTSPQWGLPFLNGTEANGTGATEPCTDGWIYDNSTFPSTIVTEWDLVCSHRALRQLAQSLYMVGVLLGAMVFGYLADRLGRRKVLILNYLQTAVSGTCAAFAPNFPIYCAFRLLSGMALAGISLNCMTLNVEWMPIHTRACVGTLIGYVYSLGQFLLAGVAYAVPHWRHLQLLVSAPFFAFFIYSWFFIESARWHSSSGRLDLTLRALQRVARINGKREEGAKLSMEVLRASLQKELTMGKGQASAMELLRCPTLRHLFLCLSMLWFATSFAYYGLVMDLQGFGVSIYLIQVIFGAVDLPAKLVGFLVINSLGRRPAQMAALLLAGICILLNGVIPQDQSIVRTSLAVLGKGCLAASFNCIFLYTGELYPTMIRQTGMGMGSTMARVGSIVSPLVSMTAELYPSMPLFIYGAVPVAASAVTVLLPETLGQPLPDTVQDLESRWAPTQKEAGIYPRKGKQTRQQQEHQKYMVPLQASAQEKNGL
Nature of the series: hOAT1 substrate. The conditions noted are these: 1 μM PFAS screen.

Series [8] addresses T2, human OAT3. Briefly: hOAT3 substrate. The conditions noted are these: for hOAT3 uptake ratio, fold higher than mock transfected controls: 1 μM PFAS screen; for Transporter Uptake Ratio OAT3: 1 μM PFAS, threshold ≥ 2-fold; for hOAT3-mediated uptake, fold: follow-up test, without probenecid; for Effect of probenecid cotreatment on hOAT3-mediated uptake: probenecid 1 mM.
Series [9] has as its target T4, human OAT1. Briefly: OAT1 inhibition assay.
The conditions of series [10]: PFHpA versus PFUDA; ref Zhang et al. (2013); cited from earlier work.

In general, IC50 refers to the point on the concentration scale where inhibition reaches its midpoint. A high value points to lower potency. A word on the Papp A→B: it is the apparent permeability from the apical to the basolateral side of a cell layer. Low readings indicate poor permeation, high ones ready permeation. Turning to `NS(=O)(=O)C(F)(F)C(F)(F)C(F)(F)C(F)(F)C(F)(F)C(F)(F)C(F)(F)C(F)(F)F` [PFOSA, perfluorooctanesulfonamide], the IC50 at human OCT2 [1] was 245 µM; at human OAT3 [2], 21.1 to 123 µM. Further, in series [3], the “neutral fraction at pH 7.4” value is ~ 6%. For the same compound, the “hOCT2 uptake ratio, % higher than mock transfectant controls” value at human OCT2 [4] is ~ 10%. Besides, in series [5], the “Papp at pH 6.5 relative to pH 7.4, times higher” value is given as ~ 2 times. In addition, the “Ph 7.4 A-B Papp” value in series [5] (dog, 90 min, 2 μM, pH 7.4) came to 41.4 ×10⁻⁶ cm/s. Moreover, the apparent permeability from apical to basolateral (Papp A→B) at 90 min, 2 μM in the series “in vitro” was found to be 41.4 ×10⁻⁶ cm/s.
On to `O=C(O)C(F)(F)C(F)(F)C(F)(F)C(F)(F)C(F)(F)C(F)(F)C(F)(F)F` [PFOA, perfluorooctanoic acid], for which the “Ph 7.4 A-B Papp” value in series [6] amounted to 1.46 ×10⁻⁶ cm/s. On human OAT4, the “OAT4 substrate classification” value was “strong substrates”; the “Transporter Uptake Ratio OAT4” value is “+ (denoted with a “+” to denote a threshold of ≥ 2-fold has been met and considered a substrate for the transporter)”; the “Effect of probenecid co-treatment on hOAT4-mediated uptake” value is given as “effectively inhibited”. Further, at human OAT4 (1 μM PFAS screen), the “hOAT4 uptake ratio, fold” value is recorded as “greater than 2 fold”. In addition, the “hOAT1 uptake ratio, % higher than controls” value on human OAT1 [7] is on record as 5–60%. For the same compound, on human OAT3 [8], the “hOAT3 uptake ratio, fold higher than mock transfected controls” value was 2.5–12 fold; the “Transporter Uptake Ratio OAT3” value is “+ (denoted with a “+” to denote a threshold of ≥ 2-fold has been met and considered a substrate for the transporter)”; the “hOAT3-mediated uptake, fold” value is on record as 2.5–15 fold; the “Effect of probenecid cotreatment on hOAT3-mediated uptake” value was “markedly inhibited”. For the same compound, at human OAT3 [2], the IC50 came out at 8.9 µM. The same compound displayed an IC50 at human OAT1 [9] of 51.4 to 166 µM.
As for `O=C(O)C(F)(F)C(F)(F)C(F)(F)C(F)(F)C(F)(F)C(F)(F)F` [PFHpA, perfluoroheptanoic acid], at human OAT4, the “OAT4 substrate classification” value was “strong substrates”; the “Transporter Uptake Ratio OAT4” value was “+ (denoted with a “+” to denote a threshold of ≥ 2-fold has been met and considered a substrate for the transporter)”; the “Effect of probenecid co-treatment on hOAT4-mediated uptake” value is “effectively inhibited”. Moreover, the “hOAT4 uptake ratio, % above controls” value at human OAT4 (1 μM PFAS screen) is ~ 20%. Besides, the “hOAT1 uptake ratio, % higher than controls” value on human OAT1 [7] is listed as 5–60%. For the same compound, the “human renal clearance rate, fold higher than PFUDA” value in series [10] is ~ 10 fold. On human OAT3 [8], the “hOAT3 uptake ratio, fold higher than mock transfected controls” value is reported as 2.5–12 fold; the “Transporter Uptake Ratio OAT3” value is “+ (denoted with a “+” to denote a threshold of ≥ 2-fold has been met and considered a substrate for the transporter)”; the “hOAT3-mediated uptake, fold” value was 2.5–15 fold; the “Effect of probenecid cotreatment on hOAT3-mediated uptake” value is “markedly inhibited”. On human OAT3 [2], this compound had an IC50 of 10.2 µM. For the same compound, the IC50 against human OAT1 [9] is 51.4 to 166 µM.
In the case of `O=C(O)C(F)(F)C(F)(F)C(F)(F)C(F)(F)C(F)(F)C(F)(F)C(F)(F)C(F)(F)C(F)(F)C(F)(F)C(F)(F)F` [PFDoDA, perfluorododecanoic acid], the “Some level of inhibition against hOAT3 mediated transport” value on human OAT3 [2] was “the only exceptions”. For the same compound, at human OCT2 [4], the “hOCT2 uptake ratio, % higher than mock transfectant controls” value is given as ~ 10%. Further, the “Some level of inhibition against hOAT1 mediated transport” value at human OAT1 [9] is “the only exceptions”.
